{
  "source": "patent US8691528B2",
  "about": "“Cell penetrating peptide” (Mitsubishi Tanabe Pharma Corporation, priority 2005, dated 2014)",
  "test_system": "CHO cells",
  "assay": "Test of translocation of fluorescence-labeled peptides into CHO cells (FACS and confocal microscopic analysis)",
  "assay_type": "cell-based",
  "details": "for contribution of the alanine-substituted amino acid to the intracellular translocation: comprehensive alanine substitution on the basis of KSH1-1",
  "experimental": "Each peptide solution, adjusted to 1 mM, was diluted with a medium to three levels, 100 μM, 50 μM, and 25 μM, and added to cells. Three kinds of cells were used: CHO cells, HeLa cells, and Jurkat cells. After each peptide solution was added, the cells were incubated for 1 hour. After the cells were washed with PBS three times, 100 μL of 0.25% trypsin-1 mM EDTA solution was added, and trypsinization was performed at room temperature for 5 minutes. After 400 μL of PBS (10% FCS) was added to stop the trypsinization, the cells were washed with 1 mL of HBSS three times. After the washing, the cells were suspended in 500 μL of PBS (10% FCS) and subjected to flowcytometry (hereinafter, FACS) analysis using FACS Calibur (Becton Dickinson).\nEach peptide was synthesized, fluorescently labeled, purified and dissolved in the same manner as Example 1-2, a test of translocation into CHO cells was performed, and an evaluation was performed by confocal microscopic analysis and FACS. FACS analysis was performed in the same manner as Example 1-3. For the KSH1 peptide and modified PTD sequences, i.e., KSH1-1 to KSH1-9 peptides (SEQ ID NOS:1 to 9 in the sequence listing), fluorescence intensities determined by FACS analysis are shown in FIG. 6. The peptide addition concentrations were 50 μM, 25 μM, 12.5 μM and 6.5 μM.\nTo determine which amino acids are important to the intracellular translocation, comprehensive alanine substitution was performed on the basis of KSH1-1 to design KSH1-11 (SEQ ID NO:11 in the sequence listing) to KSH1-23 (SEQ ID NO:22 in the sequence listing) and KSH1-35 (SEQ ID NO:32 in the sequence listing) (FIG. 7). Each peptide was synthesized, fluorescently labeled, purified and dissolved in the same manner as Example 1-2, a test of translocation into CHO cells was performed, and an evaluation was performed by confocal microscopic analysis and FACS. FACS analysis was performed in the same manner as Example 1-3. For KSH1 and modified PTD sequences, i.e., KSH11-11 to 23 and KSH1-35, fluorescence intensities determined by FACS analysis are shown in FIG. 8. The peptide addition concentrations were 50 μM, 25 μM, 12.5 μM and 6.5 μM.\n(§1) Each peptide was synthesized, fluorescently labeled, purified and dissolved in the same manner as Example 1-2, a test of translocation into CHO cells was performed, and an evaluation was performed by confocal microscopic analysis and FACS analysis. FACS analysis was performed in the same manner as Example 1-3. For KSH1 and modified PTD sequences, i.e., KSH11-24 to 1-26 and KSH1-28 to 1-30, fluorescence intensities determined by FACS analysis are shown in FIG. 10. The peptide addition concentrations were 50 μM, 25 μM, 12.5 μM and 6.5 μM.\nas §1, with “KSH1-27, KSH1-33, KSH1-34” for “KSH11-24 to 1-26”, “KSH1-36,” for “KSH1-28 to 1-30,”, “12.” for “10.”\nEach peptide was synthesized, fluorescently labeled, purified and dissolved in the same manner as Example 1-2, and an intracellular translocation test in CHO cells was performed by FACS analysis. Used for positive control were a PTD sequence derived from HIV TAT ([…] in the sequence listing) and the KSH1 peptide; used for negative control was a peptide sequence lacking intracellular transferability (SEQ ID NO:57 in the sequence listing).",
  "key": {"[1]": {"details": "50 μM, 25 μM, 12.5 μM and 6.5 μM"}},
  "note": "“Also recorded” adds a separate entry of the source.",
  "data": [
    {"substance": "KSH1-2: KSH1 with proline substituted with alanine (KLWMRWYSATTRRYG; Designed peptide to act as PTD(Protein Transduction Domain))", "values": [
      {"measurement": "intracellular translocation compared with KSH1 (in words)", "setting": "[1]", "value": "no influence on the intracellular transferability was observed"}
    ]},
    {"substance": "KSH1-3: KSH1 with the 13th arginine substituted with alanine (KLWMRWYSPTTRAYG; Designed peptide to act as PTD(Protein Transduction Domain))", "values": [
      {"measurement": "intracellular translocation compared with KSH1 (in words)", "setting": "[1]", "value": "decreased remarkably; also recorded: became observable very little"},
      {"measurement": "concentration at which intracellular translocation was detected", "setting": "detected only at this concentration", "value": 50, "unit": "µM"}
    ]},
    {"substance": "KSH1-4: modified KSH1 with three tryptophans uniformly arranged on the wheel structure (KLWMRWWSPTTRRYG; Designed peptide to act as PTD(Protein Transduction Domain))", "values": [
      {"measurement": "intracellular translocation compared with KSH1 (in words)", "setting": "[1]", "value": "did not change"}
    ]},
    {"substance": "KSH1-6: KSH1 with the two tryptophans both substituted with alanine (KLAMRAYSPTTRRYG; Designed peptide to act as PTD(Protein Transduction Domain))", "values": [
      {"measurement": "intracellular translocation compared with KSH1 (in words)", "setting": "[1]", "value": "no longer observable at all"}
    ]},
    {"substance": "KSH1-11: KSH1-1 with the 1st arginine substituted with alanine (ALWMRWYSPTTRRYG; Designed peptide to act as PTD(Protein Transduction Domain))", "values": [
      {"measurement": "intracellular translocation compared with KSH1-1 (in words)", "setting": "[1]", "value": "did not decrease a lot"},
      {"measurement": "contribution of the alanine-substituted amino acid to the intracellular translocation", "value": "minor contribution"}
    ]},
    {"substance": "KSH1-15: alanine substitution form of KSH1-1 (an arginine substituted) (RLWMAWYSPTTRRYG; Designed peptide to act as PTD(Protein Transduction Domain))", "values": [
      {"measurement": "intracellular translocation compared with KSH1-1 (in words)", "setting": "[1]", "value": "decreased"}
    ]},
    {"substance": "KSH1-17: KSH1-1 with the 7th tyrosine substituted with alanine (RLWMRWASPTTRRYG; Designed peptide to act as PTD(Protein Transduction Domain))", "values": [
      {"measurement": "intracellular translocation compared with KSH1-1 (in words)", "setting": "[1]", "value": "almost no intracellular translocation was observed"}
    ]},
    {"substance": "KSH1-19: alanine substitution form of KSH1-1 (RLWMRWYSGTTRRYG; Designed peptide to act as PTD(Protein Transduction Domain))", "values": [
      {"measurement": "contribution of the alanine-substituted amino acid to the intracellular translocation", "value": "minor contribution"}
    ]},
    {"substance": "KSH1-22: alanine substitution form of KSH1-1 (an arginine substituted) (RLWMRWYSPTTARYG; Designed peptide to act as PTD(Protein Transduction Domain))", "values": [
      {"measurement": "intracellular translocation compared with KSH1-1 (in words)", "setting": "[1]", "value": "decreased"}
    ]},
    {"substance": "KSH1-23: alanine substitution form of KSH1-1 (RLWMRWYSPTTRRAG; Designed peptide to act as PTD(Protein Transduction Domain))", "values": [
      {"measurement": "contribution of the alanine-substituted amino acid to the intracellular translocation", "value": "minor contribution"}
    ]},
    {"substance": "KSH1-24: two tryptophans substituted with leucine (RLLMRLYSPTTRRYG; Designed peptide to act as PTD(Protein Transduction Domain))", "values": [
      {"measurement": "intracellular translocation compared with KSH1-1 (in words)", "setting": "[1]", "value": "decreased"}
    ]},
    {"substance": "KSH1-25: two tryptophans substituted with phenylalanine (RLFMRFYSPTTRRYG; Designed peptide to act as PTD(Protein Transduction Domain))", "values": [
      {"measurement": "intracellular translocation compared with KSH1-1 (in words)", "setting": "[1]", "value": "nearly the same as KSH1-1"}
    ]},
    {"substance": "KSH1-26: two tryptophans substituted with isoleucine (RLIMRIYSPTTRRYG; Designed peptide to act as PTD(Protein Transduction Domain))", "values": [
      {"measurement": "intracellular translocation compared with KSH1-1 (in words)", "setting": "[1]", "value": "nearly the same as KSH1-1"}
    ]},
    {"substance": "KSH1-27: serine and threonine all substituted with alanine (RLWMRWYAPAARRYG; Designed peptide to act as PTD(Protein Transduction Domain))", "values": [
      {"measurement": "intracellular translocation compared with KSH1-1 (in words)", "setting": "[1]", "value": "decreased slightly"},
      {"measurement": "translocation compared with KSH1-1 (in words)", "setting": "at low concentrations", "value": "nearly the same"}
    ]},
    {"substance": "KSH1-29: two tryptophans substituted with valine (RLVMRVYSPTTRRYG; Designed peptide to act as PTD(Protein Transduction Domain))", "values": [
      {"measurement": "intracellular translocation compared with KSH1-1 (in words)", "setting": "[1]", "value": "decreased slightly"}
    ]},
    {"substance": "KSH1-30: two tryptophans substituted with tyrosine (RLYMRYYSPTTRRYG; Designed peptide to act as PTD(Protein Transduction Domain))", "values": [
      {"measurement": "intracellular translocation compared with KSH1-1 (in words)", "setting": "[1]", "value": "good intracellular translocation was exhibited; also recorded: good results"}
    ]},
    {"substance": "KSH1-34: 14th tyrosine in the vicinity of the 3rd tryptophan substituted with arginine (RLWMRWYSPTTRARG; Designed peptide to act as PTD(Protein Transduction Domain))", "values": [
      {"measurement": "intracellular translocation compared with KSH1-1 (in words)", "setting": "[1]", "value": "decreased considerably"}
    ]},
    {"substance": "KSH1-35: alanine substitution form of KSH1-1 (RLWMRWYSPTTRRYA; Designed peptide to act as PTD(Protein Transduction Domain))", "values": [
      {"measurement": "contribution of the alanine-substituted amino acid to the intracellular translocation", "value": "minor contribution"}
    ]},
    {"substance": "KSH1-36: the reversed-chain peptide of KSH1 (GYRRTTPSYWRMWLR; Designed peptide to act as PTD(Protein Transduction Domain))", "values": [
      {"measurement": "intracellular translocation compared with KSH1 (in words)", "setting": "at high concentrations", "value": "accentuated intracellular translocation"},
      {"measurement": "intracellular translocation compared with KSH1 (in words)", "setting": "at low concentrations", "value": "tended to decrease"}
    ]}
  ]
}
